We go through one molecule from paper PMC6573034 (Nature Communications, 2019).

One experiment has as its system MCT2 (SLC16A7). The settings on record: MCT2, L-lactate; cited from earlier work.
Experiment [1] addresses T1, SfMCT (Syntrophobacter fumaroxidans, UniProt A0LNN5).
T1 construct: expressed in transfected cells; host or cells: E. coli JA202 (MC4100 glcA::cat lldP::kan), plasmid pEXT20-SfMCT-3C-10His
T1 sequence (A0LNN5 1-412): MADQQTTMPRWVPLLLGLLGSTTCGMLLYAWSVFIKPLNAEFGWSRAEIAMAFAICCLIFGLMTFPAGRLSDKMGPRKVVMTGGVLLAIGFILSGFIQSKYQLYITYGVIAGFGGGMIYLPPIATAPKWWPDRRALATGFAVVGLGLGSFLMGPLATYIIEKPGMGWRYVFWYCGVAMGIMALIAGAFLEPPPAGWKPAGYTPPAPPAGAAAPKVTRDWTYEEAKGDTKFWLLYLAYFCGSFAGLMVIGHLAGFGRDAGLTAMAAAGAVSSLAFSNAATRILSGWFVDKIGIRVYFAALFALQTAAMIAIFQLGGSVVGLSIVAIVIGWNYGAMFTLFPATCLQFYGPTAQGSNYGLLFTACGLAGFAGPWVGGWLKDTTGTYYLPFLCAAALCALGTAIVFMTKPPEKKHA
Type of experiment: cell-based. The settings on record: competitor 1 mM. Here is the method:
(§1) The cultures were grown at 37 °C and 180 r.p.m. in an incubator shaker (Multitron, Infors HT). Protein expression was induced at OD600 ~0.5 by addition of IPTG to a final concentration of 0.25 mM. After 4 h, bacteria were pelleted (5,200 × g, 10 min, room temperature) and resuspended in uptake buffer (20 mM Bis-Tris propane-HCl (pH 6.7), 250 mM KCl) to a bacteria density of OD600 12. […] Furthermore, [3-3 H] propionic acid sodium salt ([^3H]propionate, American Radiolabeled Chemicals, specific activity 30 Ci/mmol), n-[2,3-3 H] butyric acid sodium salt ([^3H]butyrate, American Radiolabeled Chemicals, specific activity 120 Ci/mmol), and [1–14 C] pyruvic acid sodium salt ([^14C]pyruvate, specific activity 0.055 Ci/mmol American Radiolabeled Chemicals) were also used for transport experiments. […] Uptake experiments were performed in 2 ml reaction tubes (Eppendorf) at 30 °C under agitation (1,000 r.p.m., Thermomixer compact, Eppendorf). […] Bacteria were immediately pelleted by centrifugation (21,000 × g, 4 min, room temperature) and washed two times with 900 μl stop buffer. Finally, bacteria were lyzed in 50 μl 5% (w/v) sodium dodecylsulfate and transferred into a white 96-well plate (Optiplate, PerkinElmer). 150 µl of scintillation cocktail (MicroScint 40, PerkinElmer) were added before measuring each reaction for 2 min with a scintillation counter (TopCount NXT, PerkinElmer). For data analysis, the signal of the empty vector was subtracted from the transporter signal. […] Cpm values of each experiment were normalized with respect to the determined upper plateau value, i.e., the fitted upper plateau value corresponds to 100%. The arithmetic average of three independent experiments was calculated. Three independent and normalized pH-dependence curves were then averaged. For data analysis Prism6 (GraphPad Software) was used. […] Equal amounts of bacteria expressing SfMCT variants were loaded on 14% SDS/polyacrylamide gels. His-tagged transporters were detected using an anti-His5 (Qiagen, catalogue number 34660, primary antibody) at a dilution of 1:3,000 and a goat anti-mouse IgG (H + L) HRP conjugate antibody (Biorad, catalogue number 172-1011, secondary antibody) at a dilution of 1:2,500.

For experiment [2], the system named is vector-transformed E. coli JA202. In words: Uptake of radioligands into vector-transformed bacteria. Type of experiment: cell-based. Here is the method: The cultures were grown at 37 °C and 180 r.p.m. in an incubator shaker (Multitron, Infors HT). Protein expression was induced at OD600 ~0.5 by addition of IPTG to a final concentration of 0.25 mM. After 4 h, bacteria were pelleted (5,200 × g, 10 min, room temperature) and resuspended in uptake buffer (20 mM Bis-Tris propane-HCl (pH 6.7), 250 mM KCl) to a bacteria density of OD600 12. […] Furthermore, [3-3 H] propionic acid sodium salt ([^3H]propionate, American Radiolabeled Chemicals, specific activity 30 Ci/mmol), n-[2,3-3 H] butyric acid sodium salt ([^3H]butyrate, American Radiolabeled Chemicals, specific activity 120 Ci/mmol), and [1–14 C] pyruvic acid sodium salt ([^14C]pyruvate, specific activity 0.055 Ci/mmol American Radiolabeled Chemicals) were also used for transport experiments. […] Uptake experiments were performed in 2 ml reaction tubes (Eppendorf) at 30 °C under agitation (1,000 r.p.m., Thermomixer compact, Eppendorf). […] Bacteria were immediately pelleted by centrifugation (21,000 × g, 4 min, room temperature) and washed two times with 900 μl stop buffer. Finally, bacteria were lyzed in 50 μl 5% (w/v) sodium dodecylsulfate and transferred into a white 96-well plate (Optiplate, PerkinElmer). 150 µl of scintillation cocktail (MicroScint 40, PerkinElmer) were added before measuring each reaction for 2 min with a scintillation counter (TopCount NXT, PerkinElmer). For data analysis, the signal of the empty vector was subtracted from the transporter signal. […] Cpm values of each experiment were normalized with respect to the determined upper plateau value, i.e., the fitted upper plateau value corresponds to 100%. The arithmetic average of three independent experiments was calculated. Three independent and normalized pH-dependence curves were then averaged. For data analysis Prism6 (GraphPad Software) was used. The expression of SfMCT variants in E. coli JA202 (MC4100 glcA::cat lldP::kan)[15] was verified by Western blotting. Equal amounts of bacteria expressing SfMCT variants were loaded on 14% SDS/polyacrylamide gels. His-tagged transporters were detected using an anti-His5 (Qiagen, catalogue number 34660, primary antibody) at a dilution of 1:3,000 and a goat anti-mouse IgG (H + L) HRP conjugate antibody (Biorad, catalogue number 172-1011, secondary antibody) at a dilution of 1:2,500.

Experiment [3] deals with T1, SfMCT. In words: Uptake of [14C]L-lactate and other radiolabeled monocarboxylates into SfMCT expressing E. coli JA202. Type of experiment: cell-based. The procedure:
as §1

Structures are written as SMILES.

In general, Km refers to the concentration of substrate that gives half-maximal velocity. As to `C[C@H](O)C(=O)O` [L-lactate], the Km in the experiment on MCT2 (SLC16A7) is approximately 700 µM. Besides, at SfMCT [1], the “competition with [14C]L-lactate uptake (in words)” value was “strongest competition”. Further, the “Uptake of radioligand by vector (cpm)” value in experiment [2] (0.1 µCi radiolabeled monocarboxylate, vector-transformed bacteria) is reported as 1768.33 cpm. Besides, the “Uptake of [14C]L-lactate by vector (cpm)” value in experiment [2] (Time 5 min) amounted to 384.333 cpm; in experiment [2] (Time 10 min) it was 605.333 cpm; in experiment [2] (Time 20 min), 1203 cpm; in experiment [2] (Time 30 min) it was 1731 cpm; in experiment [2] (Time 40 min), 2474 cpm; in experiment [2] (Time 50 min) it was 3128.67 cpm. For the same molecule, the “Uptake of [14C]L-lactate by vector (cpm)” value in experiment [2] (Time 60 min) stood at 3938.67 cpm; in experiment [2] (Time 75 min), 5158 cpm; in experiment [2] (Time 90 min), 7311.67 cpm. The “Uptake of radioligand by SfMCT (cpm)” value on SfMCT [3] (0.1 µCi radiolabeled monocarboxylate, SfMCT-overexpressing bacteria) is recorded as 10963 cpm. On SfMCT [3] (Time 30 min), the “Uptake of [14C]L-lactate by SfMCT (cpm)” value was 8927.33 cpm. Also, the “Net uptake of [14C]L-lactate through SfMCT (cpm)” value on SfMCT [3] (Time 30 min, SfMCT minus vector) was found to be 7196.33 cpm. Moreover, the “Uptake of [14C]L-lactate” value at SfMCT [3] ([L-lactate] 500 µM) is reported as 253.382 pmol; on SfMCT [3] ([L-lactate] 750 µM), 287.925 pmol.
